From patent US9572833B2, “Treatment of red blood cells” (The General Hospital Corporation, priority 2011, dated 2017)

Assays:
[1] = Hemodynamic effects of PRBC transfusion in awake lambs; assay type: in vivo; settings: 80 ppm during transfusion and 30 min thereafter, no L-NAME
Method: (§1) Invasive hemodynamic measurements were performed in 28 lambs. Anesthesia was induced by breathing 5% isoflurane (Baxter, Deerfield, Ill.) in oxygen via mask. After endotracheal intubation, animals underwent a tracheostomy and were instrumented with indwelling carotid artery and pulmonary artery catheters, as previously described (Yu et al., Anesthesiology 2010; 112:586-94). After a 2-h recovery period from general anesthesia in a large-animal restraint unit (Lomir, Malone, N.Y.), the mean arterial pressure (MAP), mean pulmonary arterial pressure (PAP), and central venous pressure were monitored continuously using a Gould 6600 amplifier system (Gould Electronics, Inc., Eastlake, Ohio). Pulmonary capillary wedge pressure (PCWP) and heart rate were intermittently measured every 10-30 min. Cardiac output was assessed by thermal dilution as the average of three measurements after intravenous bolus-injection of 10 ml ice-cold saline solution. Systemic vascular resistance index and pulmonary vascular resistance index (PVRI), as well as cardiac index, were calculated using standard formulae. Hemodynamic data was collected until 4 h after the end of transfusion.
Six groups of awake lambs were studied. […]

[2] = Non-invasive measurement of systolic blood pressure in awake mice after transfusion; assay type: in vivo; settings: awake db/db mice; 80 ppm from 10 min prior to transfusion until 2 h after
Method: Systolic blood pressure was measured with a non-invasive blood pressure system (XBP 1000, Kent Scientific, Torrington, Conn.) (Yu et al., Circulation 2008; 117: 1982-90; Yu et al., Anesthesiology 2010; 112: 586-94). All tail vein injections were performed over one minute.

human hemoglobin = target: T1, human hemoglobin (Homo sapiens, UniProt P68871+P69905); assay: Methemoglobin conversion after nitric oxide gas treatment of red blood cells via membrane gas exchanger; assay type: biochemical; settings: 2600 ppm nitric oxide in nitrogen, single pass
T1 construct: from tissue; host or cells: human red blood cells (adsol-preserved) plus plasma with added human hemoglobin
T1 sequence (P69905 2-142 limits assumed): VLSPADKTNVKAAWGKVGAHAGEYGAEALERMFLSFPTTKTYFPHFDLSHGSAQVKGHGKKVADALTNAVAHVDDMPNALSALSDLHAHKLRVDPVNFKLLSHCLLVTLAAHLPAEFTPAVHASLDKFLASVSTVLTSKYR
T1 sequence (P68871 2-147 limits assumed): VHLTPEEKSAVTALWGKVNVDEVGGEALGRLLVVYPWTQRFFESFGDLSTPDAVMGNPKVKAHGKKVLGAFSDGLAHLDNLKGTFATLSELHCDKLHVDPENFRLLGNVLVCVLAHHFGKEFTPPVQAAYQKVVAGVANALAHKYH
Method: Plasma containing added human hemoglobin was added to adsol-preserved human red blood cells. The red blood cells were pumped (at flow rates of 5, 7.5, and 10 ml/min) through a membrane gas exchanger (Living Systems instrumentation Inc., St. Albans, Vt.), which exposed the cells (on a single pass through the gas exchanger) to 2600 ppm nitric oxide gas in nitrogen.

[3] = Hemodynamic effects of PRBC transfusion in lamb model of L-NAME-induced endothelial dysfunction; assay type: in vivo; settings: lambs pretreated with L-NAME
Method: as §1
(§2) Three additional groups of lambs were studied after intravenous infusion of the NOS inhibitor, N^G-nitro-L-arginine methyl-ester (L-NAME, Sigma-Aldrich, St. Louis, Mo.). A bolus of 25 mg/kg L-NAME was injected IV 1 h before transfusion (Weimann et al., Anesthesiology 2000; 92:1702-12). Concomitantly, an infusion of 5 mg/kg/h L-NAME was started and continued throughout the study. […] NOS-independent systemic vasodilation was also assessed by intravenous injection of sodium nitroprusside (Sigma-Aldrich) at the end of each experiment.
After L-NAME treatment, a fourth group of lambs (n=4) received fresh PRBCs, and a fifth group (n=5) received stored PRBCs. In the sixth group (n=4), following L-NAME injection, inhalation of 80 ppm nitric oxide at FiO2 0.25 was commenced 10 min prior to transfusion of stored PRBC. Nitric oxide breathing continued throughout the transfusion and for 30 min after transfusion ended.

NOS = assay: Partial inhibition of NOS by L-NAME in lambs (acetylcholine / sodium nitroprusside vasodilation, hemodynamics); assay type: in vivo
Method: as §2

supernatant hemoglobin [4] = target: T2, supernatant hemoglobin (Homo sapiens, UniProt P68871+P69905); assay: MAHMA/NO treatment of human stored red blood cells; assay type: biochemical; settings: human RBC stored 46 days
T2 construct: 99% of the supernatant hemoglobin being oxidized to methemoglobin; from tissue; host or cells: human stored red blood cells (46 days), supernatant and cells
T2 sequence (P69905 2-142 limits assumed): as the sequence (P69905 2-142 limits assumed) above
T2 sequence (P68871 2-147 limits assumed): as the sequence (P68871 2-147 limits assumed) above
Method: Human stored red blood cells (stored, 46 days) were treated with MAHMA/NO ((Z)-1-[N-Methyl-N-[6-(N-methylammoniohexyl)amino]]diazen-1-ium-1,2-diolate). […] In contrast, only 15% of the red blood cell hemoglobin was oxidized by this treatment (FIG. 14A).

supernatant hemoglobin [5] = target: T3, supernatant hemoglobin (Mus musculus, UniProt P01942+P02088); assay: MAHMA/NO treatment of murine stored red blood cells; assay type: biochemical; settings: murine RBC stored 14 days
T3 construct: from tissue; host or cells: murine stored red blood cells (14 days), supernatant
T3 sequence (P01942 2-142 limits assumed): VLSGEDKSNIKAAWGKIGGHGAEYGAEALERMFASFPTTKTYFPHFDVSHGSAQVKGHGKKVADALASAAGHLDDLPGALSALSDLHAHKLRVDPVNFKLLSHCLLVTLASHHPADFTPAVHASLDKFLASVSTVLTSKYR
T3 sequence (P02088 2-147 limits assumed): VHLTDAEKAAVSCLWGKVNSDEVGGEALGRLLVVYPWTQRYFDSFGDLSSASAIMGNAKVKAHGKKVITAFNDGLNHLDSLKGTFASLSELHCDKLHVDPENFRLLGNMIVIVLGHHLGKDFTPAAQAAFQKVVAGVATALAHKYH
Source text: This is likely due to the higher levels of hemolysis observed in murine red blood cell storage. At baseline levels, hemolysis is higher than in human stored red blood cells, and increasing concentrations of MAHMA/NO were required to fully oxidize the […] hemoglobin.

[6] = Tail-cuff systolic blood pressure in db/db mice after infusion of MAHMA/NO pre-treated stored red blood cells; assay type: in vivo; settings: SRBC pre-treated with 1 mM MAHMA/NO; awake db/db mice
Method: Murine stored red blood cells were pretreated with 1 mM MAHMA before infusion into db/db mice.

[7] = 25 mg/kg IV bolus plus 5 mg/kg/h infusion

For `[N]=O` [nitric oxide], the “PAP with transfusion of stored PRBCs while breathing nitric oxide” value ([1]; baseline 12±1) was 13±1 mmHg, the “PVRI with transfusion of stored PRBCs while breathing nitric oxide” value ([1]; baseline 107±14) was 105±22 dyn·sec·cm^−5·m^−2 and the “Effect of breathing nitric oxide on systemic hypertension induced by SRBC transfusion” value [2] was “completely prevented the systemic hypertension”. The “Human red cell hemoglobin converted to methemoglobin” value (human hemoglobin) was “only a few percent”, the “Supernatant oxyhemoglobin converted to methemoglobin” value (human hemoglobin; flow 5, 7.5, 10 ml/min, adsol-preserved human RBC) was “approximately 50%” and the “Effect of inhalation of nitric oxide on MAP” value ([3]; 80 ppm) was “did not alter MAP”. The “Effect of concurrent inhalation of nitric oxide on PAP and PVRI” value ([3]; 80 ppm, stored PRBC transfusion) was “reduced the PAP and PVRI to baseline” and the “Time after end of nitric oxide breathing at which PAP and PVRI returned to pre-transfusion levels” value [3] was 60 min.

In the case of `COC(=O)[C@@H](N)CCCNC(=N)N[N+](=O)[O-]` [L-NAME, N^G-nitro-L-arginine methyl-ester], the “Reduction in the ability of acetylcholine infusion to induce systemic vasodilation” value (NOS; [7]) was 50%, the “Vasodilator response to intravenous bolus of sodium nitroprusside” value (NOS; [7]) was “did not alter the vasodilator response” and the “Cardiac index and heart rate after L-NAME infusion” value (NOS; awake lambs) was “decreased”. The “MAP, PAP, central venous pressure, PCWP, systemic and pulmonary vascular resistance indices after L-NAME infusion” value (NOS; awake lambs) was “increased”.

For `CNCCCCCCN(C)/[N+]([O-])=N/O` [MAHMA/NO, (Z)-1-[N-Methyl-N-[6-(N-methylammoniohexyl)amino]]diazen-1-ium-1,2-diolate], the “Red blood cell hemoglobin oxidized” value (supernatant hemoglobin [4]; 0.5 mM) was 15%, the “Supernatant hemoglobin oxidized to methemoglobin” value (supernatant hemoglobin [4]; 0.5 mM) was 99% and the “Hemolysis after addition of MAHMA/NO” value (supernatant hemoglobin [4]) was “no further hemolysis”. The Supernatant methemoglobin (supernatant hemoglobin [5]; 1 mM) was 70%, the “Level of cell-free hemoglobin in the supernatant” value (supernatant hemoglobin [5]) was “decreases upon addition of MAHMA/NO” and the “Hypertensive effect caused by infusion of stored red blood cells” value [6] was “attenuated the hypertensive effect”.
